Read-outs that look alike come from different tables or passages of the source.

In test [1] the target is T1, human FLT3 protein (FLT3 (WT)) (Homo sapiens, UniProt P36888).
T1 construct: human FLT3 protein (intracellular region, 564 to 993 aa); GST; purchased Carna Biosciences; host or cells: baculovirus expression system
T1 sequence (P36888 564-993): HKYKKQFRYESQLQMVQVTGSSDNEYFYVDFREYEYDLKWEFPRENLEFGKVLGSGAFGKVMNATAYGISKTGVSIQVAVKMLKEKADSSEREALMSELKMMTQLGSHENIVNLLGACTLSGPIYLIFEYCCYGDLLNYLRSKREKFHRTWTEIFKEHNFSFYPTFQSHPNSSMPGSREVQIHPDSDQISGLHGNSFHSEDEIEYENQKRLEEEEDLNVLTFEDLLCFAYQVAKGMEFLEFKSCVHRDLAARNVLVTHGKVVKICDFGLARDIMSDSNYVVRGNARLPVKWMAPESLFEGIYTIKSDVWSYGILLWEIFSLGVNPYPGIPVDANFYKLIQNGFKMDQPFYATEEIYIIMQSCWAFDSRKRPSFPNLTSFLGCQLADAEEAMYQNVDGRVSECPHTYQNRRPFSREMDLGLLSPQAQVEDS
The experiment in a line: FLT3 inhibition test (FLT3 enzyme inhibition, time-resolved fluorescence of substrate peptide phosphorylation). The format is biochemical. As to conditions: read-out: FLT3 (WT) enzyme inhibition activity. Here is the method:
The FLT3 inhibition test was performed for the compounds of the present invention by the method described below.
A reaction mixture in a volume of 9 μL containing the FLT3 protein and a test compound of a predetermined concentration (1.2 μg of FLT3, 100 mM HEPES, 10 mM MgCl2, 25 mM NaCl, 0.01% BSA, 1 mM DTT, pH 7.5) was left standing at 25° C. for 15 minutes. […] (Toray Industries), and 3 μL (final concentration 50 μM) of ATP (Sigma-Aldrich) were added to the reaction mixture, and the mixture was shaken for 2 minutes, and then further left standing at 25° C. for 30 minutes to allow the enzymatic reaction.

The test system of a further test is MV4-11 cells. Put plainly: Leukemia cell proliferation inhibition test (ATPlite), MV4-11. The format is cell-based. As to conditions: Homo sapiens, read-out: MV4-11 cell proliferation inhibition effect. Here is the method: (§1) A leukemia cell proliferation inhibition test was performed for the compounds of the present invention by using the leukemia cell strains MV4-11 (ATCC Number, CRL-9591) and Molm-13 (DSMZ Number, ACC554).
(§2) The leukemia cell proliferation inhibition test was performed by the method described below.
(§3) For the purpose of measuring proliferation inhibition attained with a compound, the total cell count was quantified on the basis of the total cellular ATP concentration using the ATPlite (PerkinElmer) reagent utilizing firefly luciferase. The Molm-13 or MV4-11 cells were added to the RPMI medium containing penicillin and streptomycin (penn/strep) and 10% FBS at a density of 2×10^5 cells/ml, and 50 μL (10,000 cells) of the cell suspension was inoculated to each well of a 96-well plate (Corning).
(§4) A serially diluted solution of a compound or 0.1% DMSO (solvent control) in a volume of 50 μL was added to the cells, and then the cells were cultured for 72 hours under the standard cell proliferation conditions (37° C., 5% CO2) to allow proliferation of the cells. In order to measure the proliferation of the total cells, equal volume of the ATPlite reaction mixture was added to each well in accordance with the instructions attached to ATPlite, and then luminescence count of the well was measured (relative light unit, RLU).
(§5) The RLU signal observed with the DMSO solvent control after 72 hours of the culture was defined as a signal indicating 0% inhibition, and the GI50 value for the proliferation inhibition corresponds to a concentration of a compound that provides 50% inhibition based on the proliferation of the total cells contained in the DMSO solvent control. Each data point was obtained from samples in duplicate. The GI50 values were calculated by the non-linear regression fitting (Fit Model (205)) according to a sigmoid dose-reaction equation using the XLfit software.
Background: In ATP-based viability assays light output follows the ATP content of the culture.

Another test has as its system Molm-13 cells. Put plainly: Leukemia cell proliferation inhibition test (ATPlite), Molm-13. The format is cell-based. As to conditions: Homo sapiens, read-out: MOLM13 cell proliferation inhibition effect. Here is the method:
as §1, §2, §3, §4, §5

Setting [2] is: GST-fused human FLT3 (564 to 993 aa), ATP 50 μM.
[3] abbreviates: MV4-11, 72 h, MV4-11, 72 hours culture, ATPlite, GI50 per method.
Setting [4] is: MOLM-13, 72 h, Molm-13, 72 hours culture, ATPlite, GI50 per method.

`CNc1nc(Nc2cccc(C#N)c2)ncc1C#CCCCNC(=O)[C@@H]1CCCN1C(=O)/C=C/CN(C)C` [Compound 7-76]: the IC50 (in test [1] (setting [2]); with MV4-11 cells (setting [3]); with Molm-13 cells (setting [4])) was less than 10 nM each time.
Take `C[C@@H](C(=O)NCCCC#Cc1cnc(Nc2ccnc(F)c2)nc1N1CCOCC1)N(C)C(=O)/C=C/CN(C)C` [Compound 9-11]: the IC50 (in test [1] (setting [2]); with MV4-11 cells (setting [3]); with Molm-13 cells (setting [4])) was less than 10 nM in each case.
`COCCCNc1nc(Nc2cccc(F)c2)ncc1C#CCCCNC(=O)[C@H](C)N(C)C(=O)/C=C/CN(C)C` [Compound 10-1, (S,E)-4-(dimethylamino)-N-(1-((5-(2-((3-fluorophenyl)amino)-4-((3-methoxypropyl)amino)pyrimidin-5-yl)-4-pentyn-1-yl)amino)-1-oxopropan-2-yl)-N-methyl-2-butenamide]: the IC50 is less than 10 nM in test [1] (setting [2]), less than 10 nM in the test with MV4-11 cells (setting [3]) and 10 to 100 nM in the test with Molm-13 cells (setting [4]).
On to `CCCNc1nc(Nc2cccc(C#N)c2)ncc1C#C[C@@H]1CCC[C@H](NC(=O)[C@H](C)N(C)C(=O)/C=C/CN(C)C)C1` [Compound 13-7], for which the IC50 (in test [1] (setting [2]); in the test on MV4-11 cells (setting [3]); in the test on Molm-13 cells (setting [4])) was less than 10 nM each time.
`CC[C@@H](C(=O)NCCCC#Cc1cnc(Nc2ccc(F)cc2)nc1Nc1ccc(OC)nc1)N(C)C(=O)/C=C/CN(C)C` [Compound 10-39]: the IC50 (in test [1] (setting [2]); in the test on MV4-11 cells (setting [3]); with Molm-13 cells (setting [4])) was less than 10 nM throughout.
For the compound `CC(C)Nc1nc(Nc2cccc(F)c2)ncc1C#C[C@@H]1CCC[C@H](NC(=O)[C@H](C)N(C)C(=O)/C=C/CN(C)C)C1` [Compound 21-30], the IC50 was less than 10 nM in test [1] (FLT3 (WT)); less than 10 nM with MV4-11 cells (MV4-11, MV4-11 cell); less than 10 nM in the test with Molm-13 cells (MOLM-13, MOLM13 cell).
For `CCNc1nc(Nc2ccc3cnn(C)c3c2)ncc1C#CCCCNC(=O)[C@H](C)N(C)C(=O)/C=C/CN(C)C` [Compound 10-57], the IC50 (in test [1] (setting [2]); in the test with MV4-11 cells (setting [3]); in the test on Molm-13 cells (setting [4])) was less than 10 nM each time.
As for `CCCNc1nc(Nc2ccc(C#N)cc2)ncc1C#CCCCNC(=O)[C@H](COC)N(C)C(=O)/C=C/CN(C)C` [Compound 7-55], the IC50 (in test [1] (setting [2]); with MV4-11 cells (setting [3]); in the test with Molm-13 cells (setting [4])) was less than 10 nM in each case.
With `CCCNc1nc(Nc2ccnc(OC)c2)ncc1C#CCCCNC(=O)[C@@H]1C[C@H](F)CN1C(=O)/C=C/CN(C)C` [Compound 9-37, (2S,4S)-1-((E)-4-(Dimethylamino)-2-butenoyl)-4-fluoro-N-(5-(2-((2-methoxypyridin-4-yl)amino)-4-(propylamino)pyrimidin-5-yl)-4-pentyn-1-yl)pyrrolidine-2-carboxamide], the IC50 (in test [1] (setting [2]); in the test with MV4-11 cells (setting [3]); with Molm-13 cells (setting [4])) was less than 10 nM throughout.
For the compound `CCCNc1nc(Nc2ccc3c(OC)nn(C)c3c2)ncc1C#CCCCNC(=O)[C@@H]1CCCN1C(=O)/C=C/CN(C)C` [Compound 22-42], the IC50 in test [1] (FLT3 (WT)) was less than 10 nM; in the test with MV4-11 cells (MV4-11, MV4-11 cell), less than 10 nM; with Molm-13 cells (MOLM-13, MOLM13 cell) it was less than 10 nM.
Turning to `COc1ccc(Nc2ncc(C#C[C@H]3C[C@@H](NC(=O)[C@H](C)N(C)C(=O)/C=C/CN(C)C)C3)c(NC3CC3)n2)cc1F` (relative stereo) [Compound 15-10, (E)-N—((S)-1-(((1S*,3R*)-3-((4-(Cyclopropylamino)-2-((3-fluoro-4-methoxyphenyl)amino)pyrimidin-5-yl)ethynyl)cyclobutyl)amino)-1-oxopropan-2-yl)-4-(dimethylamino)-N-methyl-2-butenamide], the IC50 (in test [1] (setting [2]); in the test with MV4-11 cells (setting [3]); in the test on Molm-13 cells (setting [4])) was less than 10 nM throughout.
Take `CCCNc1nc(Nc2ccc3scnc3c2)ncc1C#CCCCNC(=O)[C@H](C)N(C)C(=O)/C=C/CN(C)C` [Compound 21-15]: the figures for the IC50 (in test [1] (setting [2]); in the test on MV4-11 cells (setting [3]); in the test with Molm-13 cells (setting [4])) were less than 10 nM, less than 10 nM and 10 to 100 nM, respectively.
In the case of `C=CC(=O)NCC(=O)NCCNC(=O)c1cnc(NCCc2ccncc2)nc1NCCC` [Compound 2-18], the IC50 in test [1] (setting [2]) was 10 to 100 nM; in the test on MV4-11 cells (setting [3]), more than 1000 nM; with Molm-13 cells (setting [4]), more than 1000 nM.
For `CCCNc1nc(Nc2cccc(F)c2)ncc1C#C[C@@H]1CCC[C@H](NC(=O)[C@H](C)N(C)C(=O)/C=C/CN(C)C)C1` [Compound 13-1, (E)-4-(dimethylamino)-N—((S)-1-(((1S,3R)-3-((2-((3-fluorophenyl)amino)-4-(propylamino)pyrimidin-5-yl)ethynyl)cyclohexyl)amino)-1-oxopropan-2-yl)-N-methyl-2-butenamide], the IC50 (in test [1] (setting [2]); in the test with MV4-11 cells (setting [3]); in the test on Molm-13 cells (setting [4])) was less than 10 nM each time.
As for `C[C@@H](C(=O)N[C@H]1C[C@@H](C#Cc2cnc(Nc3ccc(C#N)cc3)nc2NCCCF)C1)N(C)C(=O)/C=C/CN(C)C` [Compound 15-14, (E)-N—((S)-1-(((1S,3R)-3-((2-((4-Cyanophenyl)amino)-4-((3-fluoropropyl)amino)pyrimidin-5-yl)ethynyl)cyclobutyl)amino)-1-oxopropan-2-yl)-4-(dimethylamino)-N-methyl-2-butenamide], the IC50 (in test [1] (setting [2]); in the test on MV4-11 cells (setting [3]); with Molm-13 cells (setting [4])) was less than 10 nM each time.
Take `C[C@@H](C(=O)NCCCC#Cc1cnc(Nc2ccc3cnn(C)c3c2)nc1NC1CC1)N(C)C(=O)/C=C/CN(C)C` [Compound 10-58]: the IC50 (in test [1] (setting [2]); with MV4-11 cells (setting [3]); in the test with Molm-13 cells (setting [4])) was less than 10 nM each time.
As for `CCCNc1nc(Nc2ccc3cnn(C)c3c2)ncc1C#CCCCNC(=O)[C@@H]1CCCN1C(=O)/C=C/CN(C)C` [Compound 22-32], the IC50 in test [1] (FLT3 (WT)) was less than 10 nM; in the test on MV4-11 cells (MV4-11, MV4-11 cell), less than 10 nM; with Molm-13 cells (MOLM-13, MOLM13 cell), less than 10 nM.
Consider `C[C@@H](C(=O)NCCCC#Cc1cnc(Nc2ccc(C#N)cc2)nc1-n1cccn1)N(C)C(=O)/C=C/CN(C)C` [Compound 20-2, (S,E)-N-(1-((5-(2-((4-cyanophenyl)amino)-4-(1H-pyrazol-1-yl)pyrimidin-5-yl)-4-pentyn-1-yl)amino)-1-oxopropan-2-yl)-4-(dimethylamino)-N-methyl-2-butenamide], for which the IC50 (in test [1] (setting [2]); with MV4-11 cells (setting [3]); with Molm-13 cells (setting [4])) was 10 to 100 nM throughout.
For the compound `CCCNc1nc(Nc2ccc3cn(C)nc3c2)ncc1C#CCCCNC(=O)[C@H](C)N(C)C(=O)/C=C/CN(C)C` [Compound 21-10], the IC50 in test [1] (setting [2]) was less than 10 nM; with MV4-11 cells (setting [3]), 10 to 100 nM; in the test on Molm-13 cells (setting [4]), 10 to 100 nM.
For `CCCNc1nc(Nc2ccc(Cn3cncn3)cc2)ncc1C#CCCCNC(=O)CN(C)C(=O)/C=C/CN(C)C` [Compound 12-11], the IC50 (in test [1] (setting [2]); in the test on MV4-11 cells (setting [3]); in the test with Molm-13 cells (setting [4])) was 10 to 100 nM each time.
Consider `CCCNc1nc(Nc2cccc3[nH]ncc23)ncc1C#CCCCNC(=O)[C@H](C)N(C)C(=O)/C=C/CN(C)C` [Compound 21-54], for which the IC50 was 10 to 100 nM in test [1] (FLT3 (WT)); 10 to 100 nM in the test with MV4-11 cells (MV4-11, MV4-11 cell); 100 to 1000 nM in the test on Molm-13 cells (MOLM-13, MOLM13 cell).
Take `CCCNc1nc(Nc2ccc(F)cc2)ncc1C#C[C@H]1C[C@@H](NC(=O)[C@H](C)N(C)C(=O)/C=C/CN(C)C)C1` [Compound 13-18]: the IC50 (in test [1] (setting [2]); with MV4-11 cells (setting [3]); in the test on Molm-13 cells (setting [4])) was less than 10 nM in each case.

For the origin of these results see patent US9145415B2, “Nitrogen-containing heterocyclic compound or salt thereof” (FUJIFILM Corporation, priority 2012, dated 2015).
